Laboratory results: patent US20140357512A1, “HISTONE DEACETYLASE (HDAC) BIOMARKERS IN MULTIPLE MYELOMA” (priority 2013, published 2014)

Test system: human myeloma cell line MM.1S
Assay: SILAC acetylated-lysine peptide profiling, HDAC inhibitor vs DMSO (light/heavy ratio)
Format: cell-based
Source text: An embodiment of the invention comprises utilizing the SILAC method in order to quantitate changes in protein expression between two or more populations of cells. The SILAC method is a technique based on mass spectrometry that detects differences in protein abundance among samples using non-radioactive isotopic labeling. The SILAC method is known in the art, and described in detail in Ong et al., “Stable Isotope Labeling by Amino Acids in Cell Culture, SILAC, as a Simple and Accurate Approach to Expression Proteomics”, Molecular & Cellular Proteomics, vol. 1, pp. 376-386 (2002), which is incorporated herein by reference in its entirety.
Briefly, the SILAC method involves growing two populations of cells in cell culture. The first population of cells is grown in growth media containing normal amino acids (“normal media”). The second population of cells is grown in media lacking a standard essential amino acid (such as lysine), but is then supplemented with a non-radioactive, isotopically labeled form of that essential amino acid (such as lysine labeled with ^13C atoms, rather than normal ^12C atoms), which is called “heavy media”. When the two populations of cells are each growing in the medium, they incorporate the amino acids into all of their proteins. The growth of cells maintained in the heavy media is no different from that in normal media. All peptides containing the heavy amino acids are heavier than their normal counterparts. The cells from each of the two populations of cells are lysed. The lysates from each of the two cell populations are then combined. The combined cell lysates are then analyzed by mass spectrometry. Pairs of chemically identical peptides of different stable isotope composition can be differentiated in a mass spectrometer due to their difference in mass. The ratio of peak intensities in the mass spectrum for such peptide pairs reflects the abundance ratio for the two proteins.
This example describes SILAC studies that were performed to compare the effects of three different HDAC inhibitors (Compound A, Compound B, and tubastatin A) to a control on a human multiple myeloma cell line. The HDAC inhibitors were also compared amongst themselves to determine differences in their effects.
A human myeloma cell line MM.1S was grown using either ^12C (light) or ^13C (heavy) lysine containing culture medium. The “heavy” cells were treated with DMSO as the control, and the “light” cells were treated with a single HDAC inhibitor at 37° C. for 6 hours. The heavy and light cells were lysed, and the lysates were mixed in 1:1 ratio and digested with the protease trypsin. The acetylated lysine containing peptides (due to the action of the HDAC inhibitor) in the digested peptide pool were captured by a non-specific anti-acetylated lysine antibody cocktail (the antibodies identify both light and heavy acetylated peptides), and subjected to mass spectrometry analysis in order to identify thousands of individual peptides.
Thousands of peptides were identified in pairs (^12C and ^13C) due to their known mass differences. The amino acid sequence and quantitative ratio (Light/Heavy) of a given peptide in two differentially treated cell lysates were then determined and annotated with their possible protein (gene) sources.
As stated above, three HDAC inhibitors (Compound A, Compound B, and Tubastatin A) were used. Thus, the SILAC method was performed three times, with a different HDAC inhibitor compared to a control each time. Accordingly, there are three pairs of quantitative data in the table below, i.e., Compound A:DMSO, Compound B:DMSO, and Tubastatin A:DMSO. A cut-off of 1.30 fold of change (increase or decrease) was then used to determine “changed” or “+” in the table, and any peptides with a fold of change less than 1.3 fold were determined to be “unchanged” or “0” in the table. Those peptides that were not identified were marked as “NA” in the table. […]

O=C(CCCCCCNC(=O)c1cnc(N(c2ccccc2)c2ccccc2)nc1)NO [Compound A, 2-(diphenylamino)-N-(7-(hydroxyamino)-7-oxoheptyl)pyrimidine-5-carboxamide]
light to heavy ratio (L/H ratio) of acetylated peptide […](ac)FLK (SEQ ID NO: 326) (Isoform 5 of Transcriptional regulator ATRX [812], ATRX, drug:DMSO): 0.00 log 2 | light to heavy ratio (L/H ratio), log 2 scale, acetylated peptide YNDPIYVK(ac)LEK (SEQ ID NO: 764) (Isoform A of AP-1 complex subunit beta-1 [335], gene AP1B1, drug:DMSO): 0.93 | light to heavy ratio (L/H ratio) of acetylated peptide K(ac)VLFTCFK (SEQ ID NO: 529) (Isoform Beta-2 of DNA topoisomerase 2-beta [749], gene TOP2B, inhibitor:DMSO): −0.42 log 2 | light to heavy ratio (L/H ratio) of acetylated peptide K(ac)SSETLR (SEQ ID NO: 601) (Isoform CNPI of 23-cyclic-nucleotide 3-phosphodiesterase [177], gene CNP, inhibitor:DMSO): 0.46 log 2 | light to heavy ratio (L/H ratio) of acetylated peptide MVAAAK(ac)YAR (SEQ ID NO: 324) (Isoform Heart of ATP synthase subunit gamma mitochondrial [55], ATP5C1, drug:DMSO): 0.00 log 2 | light to heavy ratio (L/H ratio), log 2 scale, acetylated peptide VNK(ac)EVER (SEQ ID NO: 782) (Isoform Long of ES1 protein homolog mitochondrial [157], gene C21orf33, drug:DMSO): 1.00 | light to heavy ratio (L/H ratio) of acetylated peptide EFHQAGK(ac)[…] (SEQ ID NO: 623) (Isoform Long of ES1 protein homolog mitochondrial [171], gene C21orf33, inhibitor:DMSO): 0.48 log 2 | light to heavy ratio (L/H ratio) of acetylated peptide […](ac)R (SEQ ID NO: 588) (Isoform Long of Spectrin beta chain brain 1 [497], gene SPTBN1, inhibitor:DMSO): 0.44 log 2 | light to heavy ratio (L/H ratio) of acetylated peptide NLHSK(ac)WLK (SEQ ID NO: 589) (Isoform Long of Spectrin beta chain brain 1 [1312], gene SPTBN1, inhibitor:DMSO): 0.44 log 2 | light to heavy ratio (L/H ratio) of acetylated peptide VPNDK(ac)YYGAQTVR (SEQ ID NO: 625) (Isoform Mitochondrial of Fumarate hydratase mitochondrial [66], gene FH, inhibitor:DMSO): 0.49 log 2 | light to heavy ratio (L/H ratio) of acetylated peptide MMVAGFK(ac)K (SEQ ID NO: 339) (Isoform Short of Heterogeneous nuclear ribonucleoprotein U [524], HNRNPU, drug:DMSO): 0.00 log 2 | light to heavy ratio (L/H ratio) of acetylated peptide APQCLGK(ac)FIEIAAR (SEQ ID NO: 338) (Isoform Short of Heterogeneous nuclear ribonucleoprotein U [546], HNRNPU, drug:DMSO): 0.00 log 2 | light to heavy ratio (L/H ratio) of acetylated peptide LLEQYK(ac)EESK (SEQ ID NO: 302) (Isoform Short of Heterogeneous nuclear ribonucleoprotein U [651], HNRNPU, drug:DMSO): 0.89 log 2 | light to heavy ratio (L/H ratio) of acetylated peptide, log 2 scale (K(ac)[…] (SEQ ID NO: 246), Endoplasmin [270], HSP90B1): −0.54 | light to heavy ratio (L/H ratio), log 2 scale, acetylated peptide (ac)[…](ac)GAGK (SEQ ID NO: 801) (KRR1 small subunit processome component homolog [11], gene KRR1, drug:DMSO): 1.00 | light to heavy ratio (L/H ratio) of acetylated peptide, log 2 scale (KTPCGEGSK(ac)TWDR (SEQ ID NO: 245), 40S ribosomal protein S20 [75], SNORD54, RPS20): −0.69 | light to heavy ratio (L/H ratio) of acetylated peptide IVADK(ac)DYSVTANSK (SEQ ID NO: 317) (L-lactate dehydrogenase B chain [82], LDHB, drug:DMSO): 1.00 log 2 | L/H ratio of acetylated peptide (LAK(ac)LSDGVAVLK (SEQ ID NO: 484), 60 kDa heat shock protein mitochondrial [396], HSPD1): 0.61 log 2 | L/H ratio of acetylated peptide (LALQK(ac)QLTK (SEQ ID NO: 495), Isoform 2 of Zinc finger protein 385C [103], ZNF385C): −1.00 log 2 | L/H ratio of acetylated peptide IHLEIK(ac)QLNR (SEQ ID NO: 57) (LMAN1 [346], log 2 scale, drug vs DMSO): 0.00 | L/H ratio of acetylated peptide (LMK(ac)YGDSLYR (SEQ ID NO: 499), Nucleolar GTP-binding protein 1 [118], GTPBP4): −0.78 log 2 | L/H ratio of acetylated peptide LYK(ac)[…] (SEQ ID NO: 4) (LMNB1 [261], log 2 scale, drug vs DMSO): 0.00 | L/H ratio of acetylated peptide […](ac)LENAR (SEQ ID NO: 58) (LMNB1 [271], log 2 scale, drug vs DMSO): 0.00 | L/H ratio of acetylated peptide GFGYK(ac)GSCFHR (SEQ ID NO: 59) (LOC390956 [71], log 2 scale, drug vs DMSO): 0.00 | L/H ratio of acetylated peptide (LTLDK(ac)LDVK (SEQ ID NO: 485), Phosphoglycerate kinase 1 [11], PGK1): 0.65 log 2 | L/H ratio of acetylated peptide (LVDTGDK(ac)FR (SEQ ID NO: 478), Isoform Long of Spectrin beta chain brain 1 [1913], SPTBN1): −0.46 log 2 | L/H ratio of acetylated peptide (LVSEK(ac)LASYQAAR (SEQ ID NO: 476), Isoform 2 of Myc proto-oncogene protein [163], MYC): −0.82 log 2 | light to heavy ratio (L/H ratio) of acetylated peptide, log 2 scale (LYATMEK(ac)HK (SEQ ID NO: 251), Histone acetyltransferase p300 [1590], EP300): −0.43 | light to heavy ratio (L/H ratio) of acetylated peptide AVLK(ac)[…] (SEQ ID NO: 262) (Laminin receptor-like protein LAMRL5 [89], SNORA6, RPSAP15, SNORA62, RPSA, drug:DMSO): 0.41 log 2 | light to heavy ratio (L/H ratio) of acetylated peptide IHDVLCK(ac)LVEK (SEQ ID NO: 613) (Leucine-rich PPR motif-containing protein mitochondrial [864], gene LRPPRC, inhibitor:DMSO): 0.47 log 2 | light to heavy ratio (L/H ratio) of acetylated peptide SYVSEK(ac)DVTSAK (SEQ ID NO: 628) (Leucine-rich PPR motif-containing protein mitochondrial [1332], gene LRPPRC, inhibitor:DMSO): 0.49 log 2 | L/H ratio of acetylated peptide ICCQFDFK(ac)R (SEQ ID NO: 60) (MAN2A1 [373], log 2 scale, drug vs DMSO): 0.00 | L/H ratio of acetylated peptide YLTNQK(ac)NSNSK(ac)NDR (SEQ ID NO: 17) (MEAF6 [69:74], log 2 scale, drug vs DMSO): 1.00 | L/H ratio of acetylated peptide TLVLSDK(ac)HSPQK(ac)K (SEQ ID NO: 5) (MLL3 [2809:2814], log 2 scale, drug vs DMSO): 0.00 | light to heavy ratio (L/H ratio) of acetylated peptide VHLSQK(ac)YK (SEQ ID NO: 343) (Matrin-3 [473], MATR3, SNHG4, drug:DMSO): 0.00 log 2 | light to heavy ratio (L/H ratio) of acetylated peptide FLNK(ac)LAEER (SEQ ID NO: 342) (Matrin-3 [836], MATR3, SNHG4, drug:DMSO): 0.00 log 2
